Data as given in patent US9371337B2, “β-lactamase inhibitors” (The Regents of the University of California, priority 2011, dated 2016).
Where “and” joins values, the source holds several entries; their conditions need not be identical. Equal entries are not always repeated.

Molecular target: T1, Trypsin (UniProt P00760)
T1 construct: IC50 (Estimated from single concentration measurement); Ki
T1 sequence (P00760 1-246): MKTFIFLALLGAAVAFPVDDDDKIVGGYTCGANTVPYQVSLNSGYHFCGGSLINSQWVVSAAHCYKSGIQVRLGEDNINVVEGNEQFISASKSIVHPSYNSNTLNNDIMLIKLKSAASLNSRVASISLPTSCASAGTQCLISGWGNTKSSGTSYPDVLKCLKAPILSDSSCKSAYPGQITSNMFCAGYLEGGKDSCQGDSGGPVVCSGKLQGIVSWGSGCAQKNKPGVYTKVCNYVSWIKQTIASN
Test: Trypsin inhibition
Assay type: biochemical
Conditions: Table 4b, 100 μM inhibitor

| Structure (SMILES) | Percentage activity with 100 μM inhibitor |
| --- | --- |
| O=C(O)c1cccc(CS(=O)(=O)NCB(O)O)c1 [CR167, [3-(Carboxyphenyl)methanesulfonylamino]methaneboronic acid] | 95 |

Same assay, conditions: Table 4c, 100 μM inhibitor

| Structure (SMILES) | Percentage inhibition with 100 μM inhibitor |
| --- | --- |
| O=C(O)c1cccc(CS(=O)(=O)NCB(O)O)c1 [CR167, [3-(Carboxyphenyl)methanesulfonylamino]methaneboronic acid] | 5 |

Same assay, conditions: read-out: IC50 (Estimated from single concentration measurement); Table 4e

| Structure (SMILES) | potency estimated from few doses [µM] |
| --- | --- |
| O=C(O)c1cccc(CS(=O)(=O)NCB(O)O)c1 [CR167, [3-(Carboxyphenyl)methanesulfonylamino]methaneboronic acid] | 1900 |

System: Trypsin
Test: Trypsin inhibition
Assay type: biochemical
Conditions: Table 4h, Trypsin vs AmpC

| Structure (SMILES) | Selectivity vs AmpC (comparison of IC50 values) |
| --- | --- |
| O=C(O)c1cccc(CS(=O)(=O)NCB(O)O)c1 [CR167, [3-(Carboxyphenyl)methanesulfonylamino]methaneboronic acid] | 292308 |

System: Elastase
Test: Elastase inhibition
Assay type: biochemical
Conditions: Table 4h, Elastase vs AmpC
Text: (§1) To assess the selectivity of the new molecules we determined Ki values against three common serine proteases, Trypsin, Elastase and α-Chymotrypsin, as well as that of a class A β-lactamase, CTX-M-9 (Table 10) (Pouvreau L, et al. (1998), FEBS Lett 423:167-172; Del Mar E G, et al. (1980), Biochemistry 19:468-472; Rodriguez-Martinez J A, et al. (2009), Biotechnol Lett 31:883-887; Chen Y, et al. (2005), J Mol Biol 348:349-362).

| Structure (SMILES) | Selectivity vs AmpC (comparison of IC50 values) |
| --- | --- |
| O=C(O)c1cccc(CS(=O)(=O)NCB(O)O)c1 [CR167, [3-(Carboxyphenyl)methanesulfonylamino]methaneboronic acid] | 22139 |

Molecular target: T2, AmpC β-lactamase (Escherichia coli, UniProt P00811)
T2 construct: made in house
Test: not given
Assay type: biochemical
Conditions: Lineweaver-Burk analysis, competition with substrate CENTA

T2 sequence (P00811 20-377): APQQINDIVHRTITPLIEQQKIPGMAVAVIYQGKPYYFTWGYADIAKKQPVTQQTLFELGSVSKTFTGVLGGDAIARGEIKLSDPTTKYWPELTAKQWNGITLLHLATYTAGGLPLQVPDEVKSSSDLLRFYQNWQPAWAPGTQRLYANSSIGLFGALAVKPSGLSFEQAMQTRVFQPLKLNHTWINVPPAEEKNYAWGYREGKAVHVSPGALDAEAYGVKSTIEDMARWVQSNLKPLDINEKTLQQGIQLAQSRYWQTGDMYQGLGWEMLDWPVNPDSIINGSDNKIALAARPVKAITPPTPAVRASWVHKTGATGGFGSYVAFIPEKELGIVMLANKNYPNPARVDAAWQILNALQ

| Structure (SMILES) | type of inhibition |
| --- | --- |
| O=C(O)c1cccc(CS(=O)(=O)NCB(O)O)c1 [CR167, [3-(Carboxyphenyl)methanesulfonylamino]methaneboronic acid] | competitive |

Same assay, conditions: enzyme incubation and dilution experiments

| Structure (SMILES) | time dependence of inhibition (incubation effect, off-rate) |
| --- | --- |
| O=C(O)c1cccc(CS(=O)(=O)NCB(O)O)c1 [CR167, [3-(Carboxyphenyl)methanesulfonylamino]methaneboronic acid] | incubation effect owing to slow off-rates |

System: not given
Test: not given
Conditions: not given

| Structure (SMILES) | melting point [°C] |
| --- | --- |
| O=S(=O)(Cc1cccs1)NCB(O)O [Compound 10] | 185 to 188 |

Molecular target: T3, α-chymotrypsin (bovine pancreatic) (Bos taurus, UniProt P00766)
T3 construct: purchased Sigma-Aldrich
Test: α-Chymotrypsin inhibition
Assay type: biochemical
Conditions: Table 4b, 100 μM inhibitor; read-out: Percentage activity with 100 μM inhibitor
Method: α-Chymotrypsin assays were performed in 50 mM Tris buffer pH 7.5 with 0.01% Triton-X. Inhibitor and 0.001 mg/mL enzyme were incubated at their final concentration for 10 min before the reaction was initiated by the addition of 200 μM N-succinyl-Ala-Ala-Pro-Phe p-nitroanilide and monitored at 410 nm.
as §1

| Structure (SMILES) | activity at 100 µM [%] |
| --- | --- |
| O=C(O)c1cccc(CS(=O)(=O)NCB(O)O)c1 [CR167, [3-(Carboxyphenyl)methanesulfonylamino]methaneboronic acid] | 99 |

Same assay, conditions: Table 4e; read-out: IC50 (Estimated from single concentration measurement)

| Structure (SMILES) | potency estimated from few doses [µM] |
| --- | --- |
| O=C(O)c1cccc(CS(=O)(=O)NCB(O)O)c1 [CR167, [3-(Carboxyphenyl)methanesulfonylamino]methaneboronic acid] | 9900 |

Same assay, conditions: Table 10, α-Chymotrypsin

| Structure (SMILES) | Ki [µM] |
| --- | --- |
| O=C(O)c1cccc(CS(=O)(=O)NCB(O)O)c1 [CR167, [3-(Carboxyphenyl)methanesulfonylamino]methaneboronic acid] | 2460 |

Same assay, conditions: Table 4h, Chymotrypsin vs AmpC

| Structure (SMILES) | Selectivity vs AmpC (comparison of IC50 values) |
| --- | --- |
| O=C(O)c1cccc(CS(=O)(=O)NCB(O)O)c1 [CR167, [3-(Carboxyphenyl)methanesulfonylamino]methaneboronic acid] | 1523077 |

Same assay, conditions: read-out: Percentage inhibition with 100 μM inhibitor

| Structure (SMILES) | inhibition at 100 µM [%] |
| --- | --- |
| O=C(O)c1cccc(CS(=O)(=O)NCB(O)O)c1 [CR167, [3-(Carboxyphenyl)methanesulfonylamino]methaneboronic acid] | 1 |

Molecular target: T1, Trypsin
Test: Trypsin inhibition
Assay type: biochemical
Conditions: Table 10, Trypsin
Text: as §1

| Structure (SMILES) | Ki [µM] |
| --- | --- |
| O=C(O)c1cccc(CS(=O)(=O)NCB(O)O)c1 [CR167, [3-(Carboxyphenyl)methanesulfonylamino]methaneboronic acid] | 350 |

Molecular target: T2, AmpC β-lactamase
Test: biochemical
Assay type: biochemical
Conditions: not given
Method: FIG. 18. Representative IC50 curves. […] IC50 curves were obtained by measuring rates (in duplicates) at different inhibitor concentrations (x-axis) and by determining the residual activity (y-axis, in percentage). IC50 values were determined by non-linear regression and Ki values calculated using GraphPad software assuming competitive inhibition.
Sulfonamidomethaneboronic acids were dissolved in 100% DMSO at a concentration of 100 mM; more diluted stocks were prepared as necessary. […] The enzyme was expressed and purified as described (Usher, K. C. et al., Biochemistry 1998, 37, 16082-16092) and CENTA was purchased from Tydock Pharma.
Kinetic measurements were run at room temperature in 50 mM sodium-cacodylate pH 6.5 in the presence of 0.01% Triton-X to prevent non-specific inhibition via compound aggregation. […] (Kettner, C. A. and Shenvi, A. B., J. Biol. Chem. 1984, 259, 15106-15114) Reactions were performed in 1 mL cuvettes with 60 μM CENTA and initiated by adding 1.2 nM enzyme. […] (Weston, G. S. et al., J. Med. Chem. 1998, 41, 4577-4586) The first 180 sec of each reaction were used to measure initial rates. IC50 values were obtained by fitting binding data to a sigmoidal dose-response equation using GraphPad Prism (GraphPad software, Inc). Ki values were determined by the use of Cheng-Prusoff equation. (Cheng, Y. and Prusoff, W. H., Biochem. Pharmacol. 1973, 22, 3099-3108)

| Structure (SMILES) | IC50 [µM] |
| --- | --- |
| O=C(O)c1cccc(CS(=O)(=O)NCB(O)O)c1 [CR167, [3-(Carboxyphenyl)methanesulfonylamino]methaneboronic acid] | 0.0065 |

Same assay, conditions: Ki

| Structure (SMILES) | Ki |
| --- | --- |
| O=C(O)c1cccc(CS(=O)(=O)NCB(O)O)c1 [CR167, [3-(Carboxyphenyl)methanesulfonylamino]methaneboronic acid] | 0.0008 to 0.0013 µM and 0.0013 µM |

Same assay, conditions: Ki (from multi- or single concentration measurements), Table 4g

| Structure (SMILES) | Ki [µM] |
| --- | --- |
| O=C(O)c1cccc(CS(=O)(=O)NCB(O)O)c1 [CR167, [3-(Carboxyphenyl)methanesulfonylamino]methaneboronic acid] | 0.0013 |

Same assay, conditions: Ki Vs AmpC, Table 7

| Structure (SMILES) | Ki [µM] |
| --- | --- |
| O=C(O)c1cccc(CS(=O)(=O)NCB(O)O)c1 [CR167, [3-(Carboxyphenyl)methanesulfonylamino]methaneboronic acid] | 0.0013 |

Same assay, conditions: Ki vs AmpC, Table 8

| Structure (SMILES) | Ki [µM] |
| --- | --- |
| O=C(O)c1cccc(CS(=O)(=O)NCB(O)O)c1 [CR167, [3-(Carboxyphenyl)methanesulfonylamino]methaneboronic acid] | 0.0013 |

Same assay, conditions: Ki, Table 5

| Structure (SMILES) | Ki [µM] |
| --- | --- |
| O=C(O)c1cccc(CS(=O)(=O)NCB(O)O)c1 [CR167, [3-(Carboxyphenyl)methanesulfonylamino]methaneboronic acid] | 0.0013 |

Same assay, conditions: Ki, Table 10, AmpC

| Structure (SMILES) | Ki [µM] |
| --- | --- |
| O=C(O)c1cccc(CS(=O)(=O)NCB(O)O)c1 [CR167, [3-(Carboxyphenyl)methanesulfonylamino]methaneboronic acid] | 0.0013 |

Same assay, conditions: Table 5

| Structure (SMILES) | Ligand efficiency |
| --- | --- |
| O=C(O)c1cccc(CS(=O)(=O)NCB(O)O)c1 [CR167, [3-(Carboxyphenyl)methanesulfonylamino]methaneboronic acid] | 0.66 |

Molecular target: CTX-M-9 β-lactamase (Escherichia coli, UniProt Q9L5C8)
Test: biochemical
Assay type: biochemical
Conditions: not given
Method: Reactions were initiated by the addition of 0.3 nM enzyme and monitored at 405 nm.
as §1

CTX-M-9 β-lactamase, sequence (Q9L5C8 29-291): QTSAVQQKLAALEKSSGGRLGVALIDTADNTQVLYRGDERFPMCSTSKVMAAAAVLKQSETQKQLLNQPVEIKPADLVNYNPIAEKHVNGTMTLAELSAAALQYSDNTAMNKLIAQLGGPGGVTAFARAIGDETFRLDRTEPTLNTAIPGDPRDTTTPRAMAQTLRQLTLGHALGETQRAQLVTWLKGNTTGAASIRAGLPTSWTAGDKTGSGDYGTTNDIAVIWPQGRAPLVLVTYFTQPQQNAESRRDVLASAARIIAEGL

| Structure (SMILES) | IC50 [µM] |
| --- | --- |
| O=C(O)c1cccc(CS(=O)(=O)NCB(O)O)c1 [CR167, [3-(Carboxyphenyl)methanesulfonylamino]methaneboronic acid] | 0.125 |

Same assay, conditions: Table 4h, CTX-M-9 vs AmpC

| Structure (SMILES) | Selectivity vs AmpC (comparison of IC50 values) |
| --- | --- |
| O=C(O)c1cccc(CS(=O)(=O)NCB(O)O)c1 [CR167, [3-(Carboxyphenyl)methanesulfonylamino]methaneboronic acid] | 19 |

Same assay, conditions: ratio of Ki values

| Structure (SMILES) | selectivity towards AmpC versus CTX-M-9 β-lactamase [fold] |
| --- | --- |
| O=C(O)c1cccc(CS(=O)(=O)NCB(O)O)c1 [CR167, [3-(Carboxyphenyl)methanesulfonylamino]methaneboronic acid] | ~30 |

Same assay, conditions: read-out: IC50 (Estimated from single concentration measurement)

| Structure (SMILES) | potency estimated from few doses [µM] |
| --- | --- |
| O=C(O)c1cccc(CS(=O)(=O)NCB(O)O)c1 [CR167, [3-(Carboxyphenyl)methanesulfonylamino]methaneboronic acid] | 0.162 |

Same assay, conditions: read-out: Ki

| Structure (SMILES) | Ki [µM] |
| --- | --- |
| O=C(O)c1cccc(CS(=O)(=O)NCB(O)O)c1 [CR167, [3-(Carboxyphenyl)methanesulfonylamino]methaneboronic acid] | 0.045 |

Same assay, conditions: read-out: Percentage inhibition with 16 μM inhibitor

| Structure (SMILES) | inhibition at 16 µM [%] |
| --- | --- |
| O=C(O)c1cccc(CS(=O)(=O)NCB(O)O)c1 [CR167, [3-(Carboxyphenyl)methanesulfonylamino]methaneboronic acid] | 99 |

System: clinical strains resistant to third-generation cephalosporins
Test: MIC distribution of third-generation cephalosporins alone or with compounds over clinical strains
Assay type: cell-based
Conditions: cephalosporins combined with the compound
Method: The anti-resistance activity of inhibitors was investigated by the determination of the minimum inhibitory concentrations (MICs) of the β-lactam/inhibitor combination necessary to inhibit the growth of clinically-isolated bacteria resistant to third-generation cephalosporins via expression of class A or class C β-lactamases (Table 6).
Susceptibility testing was performed and interpreted following the guidelines of CLSI. (Clinical and Laboratory Standards Institute, Performance standards for antimicrobial susceptibility testing, 20th Informational Supplement, M100-S20 2010) The compounds were dissolved in 50% DMSO, and dilutions were performed using Muller-Hinton medium. An adequate final concentration was obtained to determine the minimum inhibitory concentrations (MICs). The concentration of DMSO was maintained below 5%. The inhibitors were tested for synergy with the third-generation β-lactams ceftazidime and cefotaxime against several clinical bacteria. The ratio of β-lactams to inhibitors was 1:4. Each value reported reflects the average of three independent experiments. […] The Friedman's test and the Wilcoxon signed rank test were used to compare MIC values. Statistical significance was established at p<0.05.

| Structure (SMILES) | clinical isolates for which MICs dropped into the susceptible range (MICs≦1 μg/mL) [%] |
| --- | --- |
| O=C(O)c1cccc(CS(=O)(=O)NCB(O)O)c1 [CR167, [3-(Carboxyphenyl)methanesulfonylamino]methaneboronic acid] | 75 |

Same assay, conditions: third-generation cephalosporins in combination with the compound

| Structure (SMILES) | MIC 25% percentile [µg/mL] | MIC 75% percentile [µg/mL] |
| --- | --- | --- |
| O=C(O)c1cccc(CS(=O)(=O)NCB(O)O)c1 [CR167, [3-(Carboxyphenyl)methanesulfonylamino]methaneboronic acid] | 0.5 | 1.5 |
